{"source": "paper PMC6394474", "about": "“Evaluation of the effects of formulation, food, or a proton-pump inhibitor on the pharmacokinetics of glasdegib (PF-04449913) in healthy volunteers: a randomized phase I study” (Cancer Chemotherapy and Pharmacology, 2018)", "key": {"[1]": {"set-up": "method as in PMID 29086063", "settings": "early maleate-salt tablet formulations, in the presence of PPIs, single 100-mg oral dose; cited from earlier work"}, "[2]": {"settings": "weakly basic drug; higher solubility at acidic pH; cited from earlier work"}, "Hedgehog pathway": {"system": "Hedgehog pathway", "set-up": "method as in PMID 28556364", "settings": "50 mg QD dose; skin; cited from earlier work"}, "[3]": {"test": "Phase I single-dose plasma pharmacokinetics of glasdegib tablet formulations in healthy volunteers (HPLC-MS/MS, noncompartmental analysis)", "type": "in vivo, human", "excerpt": "This was a Phase I, randomized, open-label, three-period, four-sequence, four-treatment study in healthy volunteers. Subjects were randomized to one of four treatment sequences (Fig. 1). All subjects received three treatments with a washout period of at least 7 days between each administration period. The duration of each administration period was 6 days with the exception of PPI treatment, which was 12 days (including 6-day follow-up after glasdegib administration).\nNo food was allowed for at least 4 h after glasdegib dosing.\nFollowing a 10-h fast, subjects consumed a recommended high-fat (~ 50% of total caloric content of the meal), high-calorie meal (~ 800 to 1000 calories with 150, 250, and 500–600 calories from protein, carbohydrate, and fat, respectively).\nFollowing a 7-day washout period, rabeprazole 40 mg was administered daily for 7 days. On the day of PK sample collection (day 7 of rabeprazole administration), both rabeprazole and glasdegib were administered in the fasted state. Rabeprazole was administered 4 h before glasdegib. […]\nThe primary PK endpoints were AUCinf and Cmax of glasdegib. Additional PK endpoints were AUC from time 0 to the last quantifiable concentration (AUClast), time for Cmax (Tmax), plasma elimination half-life (t½), apparent oral clearance (CL/F), and apparent volume of distribution following oral dose (Vz/F).\nGlasdegib plasma concentrations were determined at Covance Bioanalytical Services (Shanghai, China) using a validated, sensitive, and specific high-performance liquid chromatography–tandem mass spectrometric (HPLC–MS/MS) method. […]\nCalibration curves were linear over the range of 3–3000 ng/mL for glasdegib in plasma, using a weighted (1/concentration^2) linear regression. The lower limit of quantification (LLOQ) of glasdegib was 3 ng/mL.\nGlasdegib PK parameters were calculated using noncompartmental analysis of plasma concentration–time data. […] AUClast was determined using the linear/log trapezoidal method. […] The t½ was calculated as loge(2)/Kel, CL/F was calculated as dose/AUCinf, and Vz/F was calculated as dose/(AUCinf × Kel). […]"}, "[4]": {"set-up": "method as in PMID 24900436", "settings": "unpublished; cited from earlier work"}, "[5]": {"test": "Safety and tolerability: treatment-emergent adverse event monitoring in healthy subjects", "type": "in vivo, human", "experimental": "Safety and tolerability of glasdegib were assessed by adverse event (AE) monitoring and changes in clinical laboratory results, ECGs, and physical examination findings. AEs were graded according to the Medical Dictionary for Regulatory Activities version 20.0."}, "[6]": {"settings": "in the presence of a PPI (rabeprazole) vs fasted alone"}}, "note": "Entries after “also recorded” stand apart in the source; their conditions may differ.", "data": [{"smiles": "CN1CC[C@@H](NC(=O)Nc2ccc(C#N)cc2)C[C@@H]1c1nc2ccccc2[nH]1", "note": "[glasdegib]", "values": [{"measurement": "decrease in Cmax", "setting": "[1]", "result": 13, "unit": "%"}, {"measurement": "increase in AUCinf", "setting": "[1]", "result": 12, "unit": "%"}, {"measurement": "solubility (pH-dependent)", "setting": "[2]", "result": "drops substantially at pH ≥ 6.3; also recorded: decreasing solubility as pH increases"}, {"measurement": "downregulation of the Hedgehog pathway", "setting": "Hedgehog pathway", "result": "consistent downregulation"}, {"measurement": "decrease in geometric mean AUCinf", "setting": "[3]; high-fat, high-calorie meal vs fasted, single 100 mg oral dose", "result": 16, "unit": "%"}, {"measurement": "change in geometric mean AUCinf", "setting": "[3]; [6]", "result": "did not result in a change"}, {"measurement": "decrease in geometric mean Cmax", "setting": "[3]; [6]", "result": "~ 20%"}, {"measurement": "Biopharmaceutical Classification System class", "setting": "[4]", "result": "II or IV"}, {"measurement": "deaths, serious AEs, severe AEs, dose reductions, discontinuations due to AEs", "setting": "[5]; all treatment arms", "result": "no deaths, serious AEs, severe AEs, dose reductions, or permanent/temporary discontinuations due to AEs"}, {"measurement": "TEAEs reported across all treatment arms", "setting": "[5]; human, in vivo", "result": 17}, {"measurement": "gastrointestinal disorders, share of all TEAEs", "setting": "[5]; human, in vivo", "result": 35, "unit": "%"}, {"measurement": "severity of observed TEAEs", "setting": "[5]; human, in vivo", "result": "mild"}, {"measurement": "subjects with TEAEs across all treatment arms", "setting": "[5]; human, in vivo", "result": 12}]}]}
